# Test results reported in EP4692061A1, “LOW-MOLECULAR-WEIGHT COMPOUND HAVING CEREBLON-BINDING ACTIVITY, AND USE THEREOF” (Aevis Bio, Inc., priority 2023, dated 2024).
# Where two headings read alike, the source gives them in different places.
# Tests used:
# [1] = test system: MM.1S; experiment: Tumor cell viability, CCK-8 assay, MM.1S; format: cell-based; details: MM.1S (human multiple myeloma); compound treatment 1uM; 5 days
# Experimental: (§1) To examine whether the compounds having CRBN-binding activity according to the present invention exert tumor cell apoptosis effects, the assay was conducted using various human cancer cell lines, including human multiple myeloma cell lines (MM.1S and MM.1R-LR), a human breast cancer cell line (MDA-MB-231), a human lung cancer cell line (A549), a human rhabdomyosarcoma cell line (RD), and a human lymphoma cell line (Jeko-1).
# (§2) The MM.1S, MM.1R-LR, MDA-MB-231, A549, RD, and Jeko-1 cell lines were obtained from the American Type Culture Collection (ATCC, Manassas, VA, USA) and cultured in RPMI 1640 medium (Corning, MD, USA) or DMEM (Corning, MD, USA) supplemented with 10% fetal bovine serum (FBS) (Corning, MD, USA), 100 U/mL penicillin (Corning, MD, USA), and 100 µg/mL streptomycin (Corning, MD, USA) at 37°C in a 5% CO2 incubator for 24 hours. The cells were seeded at a density of 1 × 10^4 cells/well in 96-well plates and incubated for 24 hours. After incubation, the test compounds dissolved in dimethyl sulfoxide (DMSO, CAS No.: 67-68-5) were serially diluted to a final concentration of 10 µM and applied to the cells. Following an additional incubation for 2 to 5 days, the analysis was performed using a CCK-8 assay kit (Dojindo, Japan) according to the manufacturer's instructions.
# [2] = molecular target: cereblon (CRBN) (Homo sapiens, UniProt Q96SW2); experiment: In vitro CRBN binding assay (AlphaScreen, competitive inhibition of the PROTAC assay)
# [3] = test system: MM.1R-LR; experiment: Tumor cell viability, CCK-8 assay, MM.1R-LR; format: cell-based; details: MM.1R-LR (drug-resistant human multiple myeloma); compound treatment 1uM; 5 days
# Experimental: as §1, §2
# [4] = test system: A549; experiment: Tumor cell viability, CCK-8 assay, A549; format: cell-based; details: A549 (human lung cancer); compound treatment 1uM; 2 days
# Experimental: as §1, §2
# [5] = test system: MDA-MB-231; experiment: Tumor cell viability, CCK-8 assay, MDA-MB-231; format: cell-based; details: MDA-MB-231 (human breast cancer); compound treatment 1uM; 2 days
# Experimental: as §1, §2
# [6] = Table 1, AlphaScreen, PROTAC Optimization Kit for BET Bromodomain-Cereblon Binding, read-out: Alpha IC50
smiles,measurement,setting,value
"O=C1CCC(c2cccc(NS(=O)(=O)c3cccc(NC(=O)c4ccc(Cl)cc4)c3)c2)C(=O)N1 (stereo not drawn) [AEV41 001, 4-chloro-N-(3-(N-(3-(2,6-dioxopiperidin-3-yl)phenyl)sulfamoyl)phenyl)benzamide]",Cell viability (% of control),[1],88.3 % of control
same,IC50,[2]; [6],1230 nM
same,Cell viability (% of control),[3],78.4 % of control
O=C1CCC(c2cccc(NS(=O)(=O)c3cccc(NCc4ccc5ocnc5c4)c3)c2)C(=O)N1 (stereo not drawn) [AEV40172],IC50,[2]; [6],210 nM
O=C1CCC(c2cccc(NS(=O)(=O)c3cccc(NCc4c[nH]c5ccc(Cl)cc45)c3)c2)C(=O)N1 (stereo not drawn) [AEV40173],IC50,[2]; [6],400 nM
COc1ccc(C(=O)Nc2cccc(C3CCC(=O)NC3=O)c2)c(Cl)c1 (stereo not drawn) [AEV40176],IC50,[2]; [6],1240 nM
O=C1CCC(c2cccc(NC(=O)c3cc(Cl)ccc3Cl)c2)C(=O)N1 (stereo not drawn) [AEV40178],IC50,[2]; [6],920 nM
O=C1CCC(c2cccc(NC(=O)c3ccccc3Br)c2)C(=O)N1 (stereo not drawn) [AEV40179],IC50,[2]; [6],640 nM
O=C1CCC(c2cccc(NC(=O)c3ccccc3C(F)(F)F)c2)C(=O)N1 (stereo not drawn) [AEV40180],IC50,[2]; [6],1130 nM
Cc1ccc(NC(=O)Nc2cccc(S(=O)(=O)Nc3cccc(C4CCC(=O)NC4=O)c3)c2)cc1Cl (stereo not drawn) [AEV40181],IC50,[2],320 nM
O=C1CCC(c2cccc(NC(=O)c3sccc3Cl)c2)C(=O)N1 (stereo not drawn) [AEV40182],IC50,[2]; [6],880 nM
O=C1CCC(c2cccc(NC(=O)c3n[nH]cc3Cl)c2)C(=O)N1 (stereo not drawn) [AEV40183],IC50,[2]; [6],1050 nM
COC(=O)CCc1cccc(Nc2cccc(C3CCC(=O)NC3=O)c2)c1 (stereo not drawn) [AEV40184],IC50,[2]; [6],1410 nM
Cc1ccc(NC(=O)CCc2cccc(Nc3cccc(C4CCC(=O)NC4=O)c3)c2)cc1Cl (stereo not drawn) [AEV40185],IC50,[2]; [6],4350 nM
CC(C)(C)OC(=O)NCc1cccc(Nc2cccc(C3CCC(=O)NC3=O)c2)c1 (stereo not drawn) [AEV40186],IC50,[2]; [6],2630 nM
O=C1CCC(c2cccc(NC(=O)c3ccc4ccccc4n3)c2)C(=O)N1 (stereo not drawn) [AEV40187],IC50,[2]; [6],830 nM
Cn1cc(Cl)c(C(=O)Nc2cccc(C3CCC(=O)NC3=O)c2)n1 (stereo not drawn) [AEV40188],IC50,[2]; [6],1000 nM
O=C1CCC(c2cccc(NC(=O)c3ccsc3Cl)c2)C(=O)N1 (stereo not drawn) [AEV40189],IC50,[2]; [6],1630 nM
O=C1CCC(c2cccc(NC(=O)c3cc4ccccc4[nH]3)c2)C(=O)N1 (stereo not drawn) [AEV40190],IC50,[2]; [6],2140 nM
O=C1CCC(c2cccc(NC(=O)c3cccc4[nH]ccc34)c2)C(=O)N1 (stereo not drawn) [AEV40191],IC50,[2]; [6],480 nM
Cc1ccc(NC(=O)NCc2cccc(Nc3cccc(C4CCC(=O)NC4=O)c3)c2)cc1Cl (stereo not drawn) [AEV40192],IC50,[2]; [6],3220 nM
CCCOc1ccc(C(=O)Nc2cccc(S(=O)(=O)Nc3cccc(C4CCC(=O)NC4=O)c3)c2)cc1 (stereo not drawn) [AEV40193],IC50,[2]; [6],860 nM
O=C1CCC(c2cccc(NC(=O)c3c[nH]c4ccccc34)c2)C(=O)N1 (stereo not drawn) [AEV40194],IC50,[2]; [6],850 nM
CN1CCN(c2ccc(NC(=O)CCc3cccc(Nc4cccc(C5CCC(=O)NC5=O)c4)c3)cc2)CC1 (stereo not drawn) [AEV40196],IC50,[2]; [6],1230 nM
CCCCCCOc1ccc(NC(=O)CCc2cccc(Nc3cccc(C4CCC(=O)NC4=O)c3)c2)cc1 (stereo not drawn) [AEV40199],IC50,[2]; [6],3470 nM
CC(=O)N1CCC(NC(=O)CCc2cccc(Nc3cccc(C4CCC(=O)NC4=O)c3)c2)CC1 (stereo not drawn) [AEV40200],IC50,[2]; [6],960 nM
Nc1cc(-c2ccccc2)n(C(=O)CCc2cccc(Nc3cccc(C4CCC(=O)NC4=O)c3)c2)n1 (stereo not drawn) [AEV40201],IC50,[2]; [6],1220 nM
Nc1nn(C(=O)CCc2cccc(Nc3cccc(C4CCC(=O)NC4=O)c3)c2)c2ccccc12 (stereo not drawn) [AEV40202],IC50,[2]; [6],790 nM
O=C1CCC(c2ccc3ncoc3c2)C(=O)N1 (stereo not drawn) [AEV40203],IC50,[2]; [6],1800 nM
O=C1CCC(c2cccc(Nc3cccc(CCC(=O)N4CCS(=O)(=O)CC4)c3)c2)C(=O)N1 (stereo not drawn) [AEV40205],IC50,[2]; [6],840 nM
Nc1cccc(N2CCOc3cc(C4CCC(=O)NC4=O)ccc3C2=O)c1 (stereo not drawn) [AEV40206],IC50,[2]; [6],3690 nM
O=C1CCC(c2ccc3oc(N4CCOCC4)nc3c2)C(=O)N1 (stereo not drawn) [AEV40207],IC50,[2]; [6],4570 nM
O=C1CCC(c2ccc3oc(N4CCCCC4)nc3c2)C(=O)N1 (stereo not drawn) [AEV40208],IC50,[2]; [6],3540 nM
O=C1CCC(c2cccc(Nc3cccc(CCC(=O)Nc4cc(-c5ccccc5)[nH]n4)c3)c2)C(=O)N1 (stereo not drawn) [AEV40209],IC50,[2]; [6],910 nM
COC(=O)C1CC2(CC(NC(=O)CCc3cccc(Nc4cccc(C5CCC(=O)NC5=O)c4)c3)C2)C1 (stereo not drawn) [AEV40210],IC50,[2]; [6],1220 nM
O=C1CCC(c2cccc(Nc3cccc(CCC(=O)NC4CC5(C4)CC(C(=O)O)C5)c3)c2)C(=O)N1 (stereo not drawn) [AEV40211],IC50,[2]; [6],> 100000 nM
CC1(C(=O)Nc2cccc(N3CCOc4cc(C5CCC(=O)NC5=O)ccc4C3=O)c2)CC1 (stereo not drawn) [AEV40212],IC50,[2]; [6],2300 nM
CC1CCC(C(=O)Nc2cccc(N3CCOc4cc(C5CCC(=O)NC5=O)ccc4C3=O)c2)CC1 (stereo not drawn) [AEV40213],IC50,[2]; [6],2110 nM
CCCCc1ccc(C(=O)Nc2cccc(N3CCOc4cc(C5CCC(=O)NC5=O)ccc4C3=O)c2)cc1 (stereo not drawn) [AEV40214],IC50,[2]; [6],820 nM
O=C1CCC(c2ccc3c(c2)OCCN(c2cccc(NC(=O)C4(C(=O)Nc5ccc(F)cc5)CC4)c2)C3=O)C(=O)N1 (stereo not drawn) [AEV40215],IC50,[2]; [6],2160 nM
O=C1CCC(c2ccc3c(c2)OCCN(c2cccc(NC(=O)C4CCOCC4)c2)C3=O)C(=O)N1 (stereo not drawn) [AEV40216],IC50,[2]; [6],2510 nM
O=C1CCC(c2ccc3c(c2)OCCN(c2cccc(NC(=O)c4ccc(Cl)cc4Cl)c2)C3=O)C(=O)N1 (stereo not drawn) [AEV40217],IC50,[2]; [6],1180 nM
O=C1CCC(c2cccc(NC(=O)c3ccccc3-c3ccccc3)c2)C(=O)N1 (stereo not drawn) [AEV40218],IC50,[2]; [6],440 nM
O=C1CCC(c2cccc(Nc3cccc(NC(=O)C4(C(=O)Nc5ccc(F)cc5)CC4)c3)c2)C(=O)N1 (stereo not drawn) [AEV40219],IC50,[2]; [6],2210 nM
O=C1CCC(c2cccc(Nc3cccc(NC(=O)c4ccc(Cl)cc4Cl)c3)c2)C(=O)N1 (stereo not drawn) [AEV40220],IC50,[2]; [6],2110 nM
CCCCc1ccc(C(=O)Nc2cccc(Nc3cccc(C4CCC(=O)NC4=O)c3)c2)cc1 (stereo not drawn) [AEV40221],IC50,[2]; [6],1650 nM
O=C1CCC(c2cccc(NC(=O)c3cc(-c4ccccc4)ccc3Cl)c2)C(=O)N1 (stereo not drawn) [AEV40222],IC50,[2]; [6],1720 nM
O=C1CCC(c2cccc(NC(=O)c3cc(Br)ccc3Cl)c2)C(=O)N1 (stereo not drawn) [AEV40223],IC50,[2]; [6],1380 nM
CC1CCC(C(=O)Nc2cccc(S(=O)(=O)Nc3cccc(C4CCC(=O)NC4=O)c3)c2)CC1 (stereo not drawn) [AEV40224],IC50,[2]; [6],2130 nM
O=C1CCC(c2cccc(NS(=O)(=O)c3cccc(NC(=O)C4CCOCC4)c3)c2)C(=O)N1 (stereo not drawn) [AEV40225],IC50,[2]; [6],12100 nM
COC(=O)c1cccc(S(=O)(=O)Nc2cccc(C3CCC(=O)NC3=O)c2)c1 (stereo not drawn) [AEV40226],IC50,[2]; [6],2220 nM
CC1(C(=O)Nc2cccc(S(=O)(=O)Nc3cccc(C4CCC(=O)NC4=O)c3)c2)CC1 (stereo not drawn) [AEV40227],IC50,[2]; [6],980 nM
"O=C1CCC(c2cccc(NS(=O)(=O)c3cccc(NC(=O)c4ccc(CCl)cc4)c3)c2)C(=O)N1 (stereo not drawn) [AEV41002, 4-(chloromethyl)-N-(3-(N-(3-(2,6-dioxopiperidin-3-yl)phenyl)sulfamoyl)phenyl)benzamide]",Cell viability (% of control),[1],97.8 % of control
same,IC50,[2]; [6],170 nM
same,Cell viability (% of control),[3],90.2 % of control
"O=C1CCC(c2cccc(NS(=O)(=O)c3cccc(NC(=O)c4ccc(CCCl)cc4)c3)c2)C(=O)N1 (stereo not drawn) [AEV41003, 4-(2-chloroethyl)-N-(3-(N-(3-(2,6-dioxopiperidin-3-yl)phenyl)sulfamoyl)phenyl)benzamide]",Cell viability (% of control),[1],92.1 % of control
same,IC50,[2]; [6],770 nM
same,Cell viability (% of control),[3],79.9 % of control
same,Cell viability (% of control),[4],104.0 % of control
same,Cell viability (% of control),[5],97.0 % of control
"Cc1ccc(C(=O)Nc2cccc(S(=O)(=O)Nc3cccc(C4CCC(=O)NC4=O)c3)c2)cc1 (stereo not drawn) [AEV41009, N-(3-(N-(3-(2,6-dioxopiperidin-3-yl)phenyl)sulfamoyl)phenyl)-4-methylbenzamide]",Cell viability (% of control),[1],92.9 % of control
same,IC50,[2]; [6],540 nM
same,Cell viability (% of control),[3],81.3 % of control
